Laboratory results: patent US20230192617A1, “AZABICYCLIC(THIO)AMIDES AS FUNGICIDAL COMPOUNDS” (Bayer CropScience Aktiengesellschaft, priority 2020, published 2023)

Legend:
[1] = tested on: Pyrenophora teres; test: In vivo preventive test on Pyrenophora teres (net blotch on barley); conditions: 240 h, 500 ppm of active ingredient, preventive spray on barley, evaluated 10 days after inoculation, read-out: efficacy
Method in brief: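 Young barley plants sprayed preventively with compound formulated in DMSO/acetone/Tween 80 and diluted in water; controls got solvent only. Inoculated 24 hours later with P. teres spore suspension, then held 48 hours at 20° C, 100% RH and 8 days at 20° C, 70-80% RH.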

[2] = tested on: Sphaerotheca fuliginea; test: In vivo preventive test on Sphaerotheca fuliginea (powdery mildew on cucurbits); conditions: Podosphaera fuliginea, 192 h; 500 ppm of active ingredient; preventive spray on gherkin; evaluated 8 days after inoculation; read-out: efficacy
Method in brief: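 Young gherkin plants were sprayed with compound in DMSO/acetone/Tween 80 diluted in water. They were inoculated 24 h later with a spore suspension of Sphaerotheca fuliginea. Plants were then kept for 8 days at 20 °C and 70–80% relative humidity.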

[3] = tested on: Alternaria alternata; test: Alternaria alternata in vitro cell test; assay type: cell-based; conditions: 120 h, 20 ppm of active ingredient, liquid culture, 5 days incubation, spectrometric measurement of mycelium growth, read-out: efficacy (inhibition of fungal growth)
Method in brief: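 Liquid culture assay in which A. alternata spores in medium received DMSO-solubilized compound (final DMSO ≤1%). After 5 days, mycelium growth was measured spectrometrically. Inhibition was calculated against fungicide-free control wells.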

[4] = tested on: Botrytis cinerea; test: B-11. Botrytis cinerea in vitro cell test; assay type: cell-based; conditions: 144 h, 20 ppm of active ingredient, 6 days incubation, liquid culture, absorbance, read-out: efficacy (inhibition of fungal growth)
Method in brief: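 B. cinerea spores were grown in liquid culture with compound (DMSO ≤1% final). Mycelium growth was measured spectrometrically after 6 days, with inhibition taken as absorbance relative to untreated control wells.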

[5] = tested on: Alternaria brassicae; test: In vivo preventive test on Alternaria brassicae (leaf spot on radish or cabbage); conditions: 500 ppm of active ingredient, preventive spray on radish or cabbage, evaluated 3 to 4 days after inoculation, read-out: efficacy
Method in brief: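 Young radish or cabbage plants were sprayed with compound dissolved in DMSO/acetone/Tween 80 and diluted in water; controls received solvent only. Inoculation by spraying A. brassicae spore suspension 24 h later, then 3–4 days at 20 °C and 100% relative humidity.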

[6] = tested on: Colletotrichum lindemuthianum; test: B-8. Colletotrichum lindemuthianum in vitro cell test; assay type: cell-based; conditions: 144 h, 20 ppm of active ingredient, 6 days incubation, liquid culture, absorbance, read-out: efficacy (inhibition of fungal growth)
Method in brief: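 Spore suspension of C. lindemuthianum in liquid medium exposed to DMSO-solubilized compounds (final DMSO ≤1%) for 6 days. Mycelial growth read by absorbance, with inhibition calculated relative to compound-free control wells.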

[7] = tested on: Colletotrichum lindemuthianum; test: In vivo preventive test on Colletotrichum lindemuthianum (leaf spot on bean); conditions: 168 h, 500 ppm of active ingredient, preventive spray on bean, evaluated 7 days after inoculation, read-out: efficacy
Method in brief: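 Young bean plants sprayed with compound in DMSO/acetone/Tween 80 diluted in water; solvent-only controls. Inoculated 24 h later with C. lindemuthianum spore suspension, then kept 24 h at 20 °C/100% RH and 6 days at 20 °C/90% RH.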

[8] = tested on: Septoria tritici; test: B-9. Septoria tritici in vitro cell test; assay type: cell-based; conditions: Zymoseptoria tritici, 168 h; 20 ppm of active ingredient; 7 days incubation; liquid culture, absorbance; read-out: efficacy (inhibition of fungal growth)
Method: B-9. Septoria tritici In Vitro Cell Test [table] Fungicides were solubilized in DMSO and the solution used to prepare the required range of concentrations. The final concentration of DMSO used in the assay was ≤1%. A spore suspension of S. tritici was prepared and diluted to the desired spore density. Fungicides were evaluated for their ability to inhibit spore germination and mycelium growth in liquid culture assay. The compounds were added in the desired concentration to the culture medium with spores. After 7 days incubation, fungi-toxicity of compounds was determined by spectrometric measurement of mycelium growth. Inhibition of fungal growth was determined by comparing the absorbance values in wells containing the fungicides with the absorbance in control wells without fungicides.

[9] = tested on: Pyrenophora teres; test: B-10. Pyrenophora teres in vitro cell test; assay type: cell-based; conditions: 144 h, 20 ppm of active ingredient, 6 days incubation, liquid culture, absorbance, read-out: efficacy (inhibition of fungal growth)
Method in brief: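 Liquid-culture assay on a P. teres spore suspension with compounds added to the medium from DMSO solutions, final DMSO ≤1%. Mycelium growth read spectrometrically after 6 days. Inhibition calculated from absorbance against untreated control wells.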

[10] = Measurement of Log P values by HPLC on reversed phase columns (EEC directive 79/831 Annex V.A8); assay type: physicochemical; conditions: reversed phase HPLC column, method [a]: LC-UV, acidic range, 0.1% formic acid in water and acetonitrile as eluent
Method in brief: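 Reversed-phase HPLC with UV detection per EEC 79/831 Annex V.A8, linear 10–95% acetonitrile gradient. Aqueous eluent: 0.1% formic acid (acidic), 0.001 M ammonium acetate (neutral), or 0.1% phosphoric acid (acidic); multiple values in one method joined by "+".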

[11] = tested on: Botrytis cinerea; test: In vivo preventive test on Botrytis cinerea (grey mould); conditions: 500 ppm of active ingredient, preventive spray on gherkin or cabbage, evaluated 4 to 5 days after inoculation, read-out: efficacy
Method in brief: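 Young gherkin or cabbage plants were sprayed with compound in DMSO/acetone/Tween 80 diluted in water, then inoculated 24 hours later with a B. cinerea spore suspension. Incubation lasted 4 to 5 days: gherkin at 17° C., 90% relative humidity; cabbage at 20° C., 100% relative humidity.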

| SMILES | pest or weed control at 500 ppm [1] [%] | pest or weed control at 500 ppm [2] [%] | inhibition at 20 ppm [3] [%] | inhibition at 20 ppm [4] [%] | pest or weed control at 500 ppm [5] [%] | inhibition at 20 ppm [6] [%] | pest or weed control at 500 ppm [7] [%] | inhibition at 20 ppm [8] [%] | inhibition at 20 ppm [9] [%] | chromatographic logP [10] | pest or weed control at 500 ppm [11] [%] |
| --- | --- | --- | --- | --- | --- | --- | --- | --- | --- | --- | --- |
| Cc1cc(Br)ccc1C(F)(F)CNC(=O)c1c(Oc2cccc(C3CC3)c2F)nnc2c1CCCC2 [I-153] | 90 to 100 | 90 to 100 | 90 to 100 | 90 to 100 | 90 to 100 | 90 to 100 | 90 to 100 | 90 to 100 | 90 to 100 | – | – |
| Cc1cc(Br)ccc1C(F)(F)CNC(=O)c1c(Oc2cccc(Cl)c2F)nnc2c1CCC2 [I-154] | 90 to 100 | 90 to 100 | 90 to 100 | 90 to 100 | 90 to 100 | 90 to 100 | 90 to 100 | 90 to 100 | 90 to 100 | 4.11 | – |
| Cc1ccc(CCNC(=O)c2c(Oc3cccc(C(F)(F)F)c3)cnc3c2CCC3)c(C)c1 [I-157] | 90 to 100 | 90 to 100 | 90 to 100 | 90 to 100 | 90 to 100 | 90 to 100 | 90 to 100 | 90 to 100 | 90 to 100 | 4.23 | – |
| O=C(NCC(F)(F)c1ccc(Cl)cc1Cl)c1c(Oc2cccc(C3CC3)c2F)nnc2c1CCCC2 [I-196] | 90 to 100 | 90 to 100 | 90 to 100 | 90 to 100 | – | 90 to 100 | 90 to 100 | 90 to 100 | 90 to 100 | 4.28 | 90 to 100 |
| Cc1cc(Cl)ccc1C(F)(F)CNC(=O)c1c(Oc2cccc(C(F)(F)F)c2)nnc2c1CCC2 [I-164] | 90 to 100 | 90 to 100 | 90 to 100 | 90 to 100 | 90 to 100 | 90 to 100 | 90 to 100 | 90 to 100 | 90 to 100 | 4.11 | – |
| O=C(NCC(F)(F)c1ccc(Br)cc1Cl)c1c(Oc2cccc(C(F)F)c2)nnc2c1CCCC2 [I-208] | 90 to 100 | 90 to 100 | 90 to 100 | 90 to 100 | – | 90 to 100 | 90 to 100 | 90 to 100 | 90 to 100 | 3.84 | 90 to 100 |
| O=C(NCC(F)(F)c1ccc(Cl)cc1Cl)c1c(Oc2cccc(C(F)(F)F)c2)nnc2c1CCC2 [I-198] | 80 to 89 | 90 to 100 | 90 to 100 | 90 to 100 | – | 90 to 100 | 90 to 100 | 90 to 100 | 90 to 100 | 4.05 | 90 to 100 |
| O=C(NCC(F)(F)c1ccc(Br)cc1Cl)c1c(Oc2cccc(C(F)(F)F)c2)nnc2c1CCCC2 [I-207] | 90 to 100 | 90 to 100 | 90 to 100 | 90 to 100 | – | 90 to 100 | 90 to 100 | 90 to 100 | 90 to 100 | 4.28 | 90 to 100 |
| O=C(NCC(F)(F)c1ccc(Br)cc1Cl)c1c(Oc2cccc(Cl)c2F)nnc2c1CCCC2 [I-210] | 90 to 100 | 90 to 100 | 90 to 100 | 90 to 100 | – | 90 to 100 | 90 to 100 | 90 to 100 | 90 to 100 | 4.4 | 90 to 100 |
| O=C(NCC(F)(F)c1ccc(Br)cc1Cl)c1c(Oc2cccc(C3CC3)c2F)nnc2c1CCCC2 [I-211] | 90 to 100 | 90 to 100 | 90 to 100 | 90 to 100 | – | 90 to 100 | 90 to 100 | 90 to 100 | 90 to 100 | 4.69 | 90 to 100 |
| Cc1ccc([C@@H](F)CNC(=O)c2c(Oc3cccc(C(F)(F)F)c3)nnc3c2OCC(C)(C)O3)c(C)c1 (racemic) [I-155] | 90 to 100 | 90 to 100 | 90 to 100 | 90 to 100 | 90 to 100 | 90 to 100 | 90 to 100 | 90 to 100 | 90 to 100 | 3.91 | – |
| Cc1cc(Br)ccc1C(F)(F)CNC(=O)c1c(Oc2cccc(C(F)(F)F)c2)nnc2c1CCCC2 [I-202] | 90 to 100 | 90 to 100 | 90 to 100 | 90 to 100 | – | 90 to 100 | 90 to 100 | 90 to 100 | 90 to 100 | 4.28 | 90 to 100 |
| O=C(NCC(F)(F)c1ccc(Cl)cc1Cl)c1c(Oc2cccc(Cl)c2)nnc2c1CCCC2 [I-192] | 90 to 100 | 90 to 100 | 90 to 100 | 90 to 100 | – | 90 to 100 | 90 to 100 | 90 to 100 | 90 to 100 | 4 | 90 to 100 |
| O=C(NCC(F)(F)c1ccc(Br)cc1Cl)c1c(Oc2cccc(Cl)c2)nnc2c1CCCC2 [I-209] | 90 to 100 | 90 to 100 | 90 to 100 | 90 to 100 | – | 90 to 100 | 90 to 100 | 80 to 89 | 90 to 100 | 4.11 | 90 to 100 |
| O=C(NCC(F)(F)c1ccc(Cl)cc1Cl)c1c(Oc2cccc(Cl)c2F)nnc2c1CCC2 [I-201] | 90 to 100 | 90 to 100 | 90 to 100 | 90 to 100 | – | 90 to 100 | 90 to 100 | 90 to 100 | 90 to 100 | 3.94 | 90 to 100 |
| O=C(NCC(F)c1ccc(Cl)cc1Cl)c1c(Oc2cccc(C3CC3)c2F)nnc2c1CCCC2 (stereo not drawn) [I-184] | 90 to 100 | 90 to 100 | 90 to 100 | 90 to 100 | 90 to 100 | 90 to 100 | 90 to 100 | 90 to 100 | 90 to 100 | 4.17 | – |
